Counter-ions that a name gives are not always drawn.

For `CCc1nc(-c2ccc(F)cc2)[nH]c1-c1nccs1` (as salt: HCl) [Preparation example 51], the melting point (in general, the temperature of the solid-liquid transition) was 215 to 218 °C.
`CCc1nc(-c2ccc(F)cc2)[nH]c1-c1cscn1` (as salt: HCl) [Preparation example 52] had a melting point of 267 to 269 °C.
The result for `Cc1nc(-c2csc(Cl)c2)[nH]c1-c1cccnc1` (as salt: HCl) [Preparation example 54] reads 198 to 201 °C.
In the case of `CCc1nc(-c2csc(Cl)c2)[nH]c1-c1cccnc1` (as salt: HCl) [Preparation example 55], the melting point was in the range of 205 to 207 °C.
`CCCc1nc(-c2ccc(F)cc2)[nH]c1Br` (as salt: HCl) [Preparation example 79] showed a melting point of 178 to 180 °C.
In turn, `CCc1nc(-c2ccc(C)nc2)[nH]c1-c1cncs1` (as salt: HCl) [Preparation example 83] had a melting point of 247 to 251 °C.
With `CCc1nc(-c2ccc(F)cc2)[nH]c1-c1ccccc1OC` (as salt: HCl) [Preparation example 84] the figure was 200 to 203 °C (dec.); with `CCc1nc(-c2ccc(F)cc2)[nH]c1-c1cncnc1` (as salt: HCl) [Preparation example 85], 287 to 289 °C.
The result for `CCc1nc(-c2ccc(F)cc2)[nH]c1-c1cncs1` (as salt: HCl) [Preparation example 86] reads 254 to 256 °C; that for `CCCc1nc(-c2ccc(F)cc2)[nH]c1-c1ccc(F)cc1` (as salt: HCl) [Preparation example 87], 233 to 235 °C; that for `CCCc1nc(-c2ccc(F)cc2)[nH]c1-c1ccccc1` (as salt: HCl) [Preparation example 88], 224 to 226 °C.
The result for `CCCc1nc(-c2ccc(F)cc2)[nH]c1-c1ccc(SC)cc1` (as salt: HCl) [Preparation example 89] reads 174 to 176 °C.
In turn, `CCCc1nc(-c2ccc(F)cc2)[nH]c1-c1ccc([N+](=O)[O-])cc1` (as salt: HCl) [Preparation example 91] yielded a melting point of 220 to 222 °C.
Consider `CCCc1nc(-c2ccc(F)cc2)[nH]c1-c1cc(Cl)ccc1O` (as salt: HCl) [Preparation example 92], for which the melting point was 262 to 264 °C.
For the compound `CCCc1nc(-c2ccc(F)cc2)[nH]c1-c1cccc(OC)c1` (as salt: HCl) [Preparation example 96], the melting point is 120 to 122 °C.
With `CCCc1nc(-c2ccc(F)cc2)[nH]c1-c1cccc(F)c1` (as salt: HCl) [Preparation example 99] the figure was 228 to 230 °C; with `CCCc1nc(-c2ccc(F)cc2)[nH]c1-c1ccccc1C(N)=O` (as salt: HCl) [Preparation example 101], 186 to 189 °C.
`Cc1ccc(-c2nc(CO)c(-c3cccnc3)[nH]2)cn1` (as salt: HCl) [Preparation example 114] had a melting point of 266 to 269 °C.
With `COCc1nc(-c2ccc(F)cc2)[nH]c1-c1ccccc1` (as salt: HCl) [Preparation example 121] the figure was 204 to 207 °C.
With `COCc1nc(-c2cccc(F)c2)[nH]c1-c1ccccc1` (as salt: HCl) [Preparation example 123] the figure was 185 to 188 °C; with `COCc1nc(-c2ccc(C)nc2)[nH]c1-c1cccnc1` (as salt: HCl) [Preparation example 127], 251 to 255 °C.
With `CSCc1nc(-c2cccc(F)c2)[nH]c1-c1ccccc1` (as salt: HCl) [Preparation example 131] the figure was 218 to 220 °C; with `CSCc1nc(-c2ccc(C#N)cc2)[nH]c1-c1ccccc1` (as salt: HCl) [Preparation example 132], 256 to 259 °C; with `C[S+]([O-])Cc1nc(-c2cccc(F)c2)[nH]c1-c1ccccc1` (centres unmarked) (as salt: HCl) [Preparation example 136], 198 to 200 °C.
`C[S+]([O-])Cc1[nH]c(-c2ccc(F)cc2)nc1-c1ccccc1` (centres unmarked) (as salt: HCl) [Preparation example 639] showed a melting point of 203 to 204 °C.
For the compound `O=C(O)Cc1nc(-c2ccc(F)cc2)oc1-c1ccccc1` (as salt: Na) [Preparation Example 153], the melting point is over 300 °C.
`COc1ccccc1-c1c[nH]c(-c2ccc(F)cc2)n1` (as salt: hydrochloride) [Preparation example 66, 2-(4-fluorophenyl)-4-(2-methoxyphenyl)imidazole] registered a melting point of 245 to 248 °C.
With `CCc1nc(-c2ccc(F)cc2)[nH]c1Br` (as salt: hydrochloride) [Preparation example 77, 5-bromo-4-ethyl-2-(4-fluorophenyl)-imidazole] the figure was 219 to 221 °C (dec.); with `CNc1[nH]c(-c2ccc(F)cc2)nc1-c1ccccc1` (as salt: hydrochloride) [Preparation example 107, 5-methylamino-2-(4-fluorophenyl)-4-phenylimidazole], 253 to 255 °C; with `OCCc1[nH]c(-c2ccc(Cl)s2)nc1-c1cccnc1` (as salt: hydrochloride) [Preparation example 146, 2-(5-chloro-thiophen-2-yl)-5-hydroxyethyl-4-(3-pyridyl)imidazole], 179 to 180 °C.
`CCOC(=O)Cc1nc(-c2ccc(OC)cc2)oc1-c1cccs1` [Preparation Example 154] came in with a melting point of 105 to 107 °C.
With `CCOC(=O)Cc1nc(-c2ccc(F)cc2)oc1-c1ccccc1F` [Preparation Example 161] the figure was 88 to 89 °C.
With `CCOC(=O)Cc1nc(-c2ccc(F)cc2)oc1-c1cc(C)cs1` [Preparation Example 163] the figure was 138 to 139 °C; with `O=C(O)Cc1nc(-c2ccc(F)cc2)oc1-c1cccs1` [Preparation Example 189], 208 to 209 °C; with `CCOC(=O)Cc1nc(-c2ccc(Cl)cc2)oc1-c1ccco1` [Preparation Example 191], 109 to 111 °C.
The result for `O=C(O)Cc1nc(-c2ccc(Cl)cc2)oc1-c1cccs1` [Preparation Example 192] reads 214 to 215 °C; that for `CCOC(=O)Cc1nc(-c2ccc(C)cc2)oc1-c1cccs1` [Preparation Example 196], 125 to 127 °C; that for `COc1ccc(-c2nc(CC(=O)O)c(-c3ccsc3)o2)cc1` [Preparation Example 200], 198 to 199 °C.
`CCOC(=O)Cc1nc(-c2ccc(OC)c(F)c2)oc1-c1cccs1` [Preparation Example 382] registered a melting point of 117 to 117.5 °C.
`CCOC(=O)Cc1nc(-c2ccc(N(C)C)cc2)oc1-c1ccc(Cl)s1` [Preparation Example 384] had a melting point of 118 to 119 °C.
As for `CCOC(=O)Cc1nc(-c2cc3ccccc3s2)oc1-c1ccsc1` [Preparation Example 408], the melting point was 155 to 156.5 °C.
Turning to `CCOC(=O)Cc1nc(-c2ccc(SC)cc2)oc1-c1ccsc1` [Preparation Example 409], the melting point was 77 to 78 °C.
`CCOC(=O)Cc1nc(-c2ccc(OC)c(C)c2)oc1-c1ccsc1` [Preparation Example 410] registered a melting point of 84 to 86 °C.
`CCOC(=O)Cc1nc(-c2ccc3ncccc3c2)oc1-c1ccsc1` [Preparation Example 411] registered a melting point of 130 to 133 °C.
Regarding `CCOC(=O)Cc1nc(-c2ccc(COC(C)=O)cc2)oc1-c1ccc(Cl)s1` [Preparation Example 426], the melting point lay within 112 to 113 °C.
With `CCOC(=O)Cc1nc(-c2cccc(C)c2)oc1-c1cccs1` [Preparation Example 427] the figure was 80 to 81 °C; with `CCOC(=O)Cc1nc(-c2ccc3ccccc3n2)oc1-c1ccsc1` [Preparation Example 428], 168.5 to 169.5 °C; with `CCOC(=O)Cc1nc(-c2cnc3occc3c2)oc1-c1ccc(Cl)s1` [Preparation Example 429], 145 to 146 °C.
Regarding `O=C(O)Cc1nc(-c2ccc(F)cc2)oc1-c1ccsc1` [Preparation Example 618], the melting point is 207 to 209 °C.
The result for `OCCc1nc(-c2ccc(F)cc2)oc1-c1ccsc1` [Preparation Example 619] reads 110 to 111 °C; that for `Clc1ccc(-c2nc(Cc3nnn[nH]3)c(-c3ccccc3)s2)cc1` [Preparation Example 632, 5-[2-(4-chlorophenyl)-5-phenyl-thiazol-4-ylmethyl]tetrazole], 213 to 214 °C; that for `CCOC(=O)c1cc(-c2nc(CC)c(-c3cccnc3)[nH]2)cs1` [Preparation example 11], 187 to 189 °C.
The result for `NC(=O)Cc1nc(-c2ccc(F)cc2)[nH]c1-c1ccsc1` [Preparation example 44] reads 200 to 202 °C (dec.).
On to `Fc1ccc(-c2nc(C3CCCCC3)c(-c3ccsc3)[nH]2)cc1` [Preparation example 45], for which the melting point is 171 to 173 °C.
`CCOC(=O)c1nc(-c2ccc(F)cc2)[nH]c1CC` [Preparation example 69, ethyl 5-ethyl-2-(4-fluorophenyl)imidazol-4-carboxylate] displayed a melting point of 197 to 198 °C.
In turn, `CCCc1c[nH]c(-c2ccc(F)cc2)n1` [Preparation example 76] gave a melting point of 168 to 170 °C.
With `O=CNc1[nH]c(-c2ccc(F)cc2)nc1-c1ccccc1` [Preparation example 105, 5-formylamino-2-(4-fluorophenyl)-4-phenylimidazole] the figure was 245 to 247 °C; with `O=CCNc1[nH]c(-c2ccc(F)cc2)nc1-c1ccccc1` [Preparation example 106, 5-formylmethylamino-2-(4-fluorophenyl)-4-phenyl-imidazole], 256 to 258 °C; with `O=CCCNc1[nH]c(-c2ccc(F)cc2)nc1-c1ccccc1` [Preparation example 111, 5-formylethylamino-2-(4-fluorophenyl)-4-phenylimidazole], 201 to 202 °C.
